Here are results for two molecules from patent publication US20060270607A1, “Pharmaceutical combinations” (priority 1999, published 2006).

Experiment [1] has as its system platelet P-selectin expression. Nature of the experiment: ADP-induced platelet P-selectin expression in human washed platelets. The format is cell-based. As to conditions: ADP 10 μM, GR144053 10 μM, compound B 10 nM, Mean ± se (n = 3), Control 13.1 ± 3.3. Here is the method:
P-selectin expression on the platelet membrane surface plays an important role in platelet-leukocyte-conjugate formation and there is increasing evidence that such interactions play an important role in both acute thrombosis and in the inflammatory aetiology of progressive atheroscerosis. The effect of a P2T-receptor antagonist (compound B) on ADP (10 μM)-induced platelet P-selectin expression was investigated in human washed platelets. The effect of compound B (10 nM) was compared with that of the GPIIb/IIIa antagonist, GR144053 (10 μM, Foster et al (1993) Thromb Haemostas; 69(6):559, synthesized in AstraZeneca R & D, Charnwood). These concentrations are 4 (compound B)—and 600 (GR144053)—fold higher than the respective IC50 values for inhibition of ADP-induced platelet aggregation in this system.

The subject of experiment [2] is ADP-induced platelet aggregation. The experiment can be described thus: ADP-induced platelet aggregation, whole blood impedance aggregometry. The format is cell-based. The note with it: human blood ex vivo; for Aggregation, ADP 10 μM, −compound A: n = 7-8. Here is the method: Human Blood In Vitro—Compound A and Clopidogrel
Compound A (500 nM final concentration) was added to blood from healthy human volunteers receiving clopidogrel (Sanofi-Winthrop, 75 mg/day for 11 days). ADP-induced platelet aggregation (+/−compound A) was measured using whole blood impedance aggregometry.

Each structure is given as a SMILES string.

With `Cl.Cl.Cl.N=C(N)c1ccc(N2CCN(C3CCN(CC(=O)O)CC3)CC2)cc1` [GR144053], the “P-selectin expression (% positive cells)” value in experiment [1] is given as 17.7 ± 1.7 % positive cells.
`COC(=O)[C@H](c1ccccc1Cl)N1CCc2sccc2C1` [clopidogrel]: the “Inhibition of the ADP response (in words)” value in experiment [2] (clopidogrel alone, 75 mg/day for 11 days) was “slowly developing, incomplete inhibition”. Besides, the “Aggregation, ADP 10 μM, −compound A” value in experiment [2] (oral clopidogrel 75 mg/day for 1 day, mean ± SD) came out at 13.8 ± 2.3 ohms; in experiment [2] (oral clopidogrel 75 mg/day for 2 days, mean ± SD), 11.8 ± 3.4 ohms; in experiment [2] (oral clopidogrel 75 mg/day for 3 days, mean ± SD), 10.2 ± 4.5 ohms; in experiment [2] (oral clopidogrel 75 mg/day for 11 days, mean ± SD) it was 8.2 ± 4.4 ohms. Also, the “Aggregation, ADP 300 μM, −compound A” value in experiment [2] (oral clopidogrel 75 mg/day for 3 days, n=1) is 13.9^(n=1) ohms; in experiment [2] (oral clopidogrel 75 mg/day for 11 days, mean ± SD, n=3), 11.4 ± 5.2^(n=3) ohms.
